Data on 31 compounds can be found in patent US10316028B2, “Orexin receptor antagonists” (Heptares Therapeutics Limited, priority 2012, dated 2019).

Structures are written as SMILES.

For the assay, the target named is T1, human Orexin-2 receptor (Homo sapiens, UniProt O43614).
T1 construct: expressed in transfected cells; host or cells: HEK293 cells (transient transfection, Genejuice); membranes
T1 sequence (O43614 1-444): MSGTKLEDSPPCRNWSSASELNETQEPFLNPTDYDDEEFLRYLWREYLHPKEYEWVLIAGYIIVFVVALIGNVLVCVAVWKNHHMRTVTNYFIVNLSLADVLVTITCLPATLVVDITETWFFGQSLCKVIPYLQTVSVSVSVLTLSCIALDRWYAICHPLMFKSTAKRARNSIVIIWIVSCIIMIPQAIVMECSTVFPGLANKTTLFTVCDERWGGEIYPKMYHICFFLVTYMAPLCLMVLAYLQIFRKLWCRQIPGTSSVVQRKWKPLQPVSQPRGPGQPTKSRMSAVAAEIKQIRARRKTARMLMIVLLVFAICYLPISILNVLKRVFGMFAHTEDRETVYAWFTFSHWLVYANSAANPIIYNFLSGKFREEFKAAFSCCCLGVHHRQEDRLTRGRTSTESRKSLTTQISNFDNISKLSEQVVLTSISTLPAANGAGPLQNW
Description: 3H-EMPA radioligand binding assay. To be noted: 3H-EMPA displacement, membranes of HEK293 cells transfected with human Orexin-2 receptor; KI by Cheng-Prussoff; read-out: OX2 pKi ave (converted). Here is the method: cDNA encoding the human Orexin-2 receptor was transfected into HEK293 cells using the transfection reagent Genejuice (Novagen). Forty-eight hours after transfection, cells were harvested and washed twice with ice cold phosphate-buffered saline. The pellet was resuspended in ice-cold buffer containing 20 mM Tris-HCl, pH 7.4, 1 mM EDTA and homogenised with an Ultraturax for 30 s at maximum speed. After centrifugation at 48,000 g for 30 min at 4° C., the pellet was resuspended and spun again. The final pellet was resuspended and frozen at −80° C. before use. Protein concentration was determined using the BCA protein assay method.
^3H-EMPA Radioligand Binding Assay
At the end of the incubation, membranes were filtered onto a unifilter, a 96-well white microplate with bonded GF/B filter pre-incubated with 0.5% polyethylenimine, with a Tomtec cell harvester and washed 4 times with distilled water. […] Radioactivity on the filter was counted (1 min) on a microbeta counter after addition of 50 µL of scintillation fluid. […] IC50 values were derived from the inhibition curve and the equilibrium dissociation constant (KI) values were calculated using the Cheng-Prussoff equation.
`COc1ccc(N2C(=O)N(Cc3ccc4c(c3)OCO4)c3ccccc3S2(=O)=O)cc1OC` [Example 1, 4-(1,3-benzodioxol-5-ylmethyl)-2-(3,4-dimethoxyphenyl)-2H-1,2,4-benzothiadiazin-3(4H)-one 1,1-dioxide]: the Ki is 316 nM.
For `COc1ccc(CN2C(=O)N(c3ccc(OC)c(OC)c3)S(=O)(=O)c3ccccc32)cc1F` [Example 2, 2-(3,4-dimethoxyphenyl)-4-(3-fluoro-4-methoxybenzyl)-2H-1,2,4-benzothiadiazin-3(4H)-one 1,1-dioxide], the Ki was 141 nM.
For `COc1cccc(CN2C(=O)N(c3cc(OC)cc(OC)c3)S(=O)(=O)c3ccccc32)c1` [Example 3, 2-(3,5-dimethoxyphenyl)-4-(3-methoxybenzyl)-2H-1,2,4-benzothiadiazin-3(4H)-one 1,1-dioxide] the value was 447 nM; for `COc1ccc(N2C(=O)N(Cc3cccc(C#N)c3)c3ccccc3S2(=O)=O)cc1OC` [Example 4, 3-{[2-(3,4-dimethoxyphenyl)-1,1-dioxido-3-oxo-2,3-dihydro-4H-1,2,4-benzothiadiazin-4-yl]methyl}benzonitrile], 355 nM; for `COc1ccc(N2C(=O)N(Cc3ccccc3)c3ccccc3S2(=O)=O)cc1OC` [Example 5, 4-benzyl-2-(3,4-dimethoxyphenyl)-2H-1,2,4-benzothiadiazin-3(4H)-one 1,1-dioxide], 89.1 nM.
For `COc1cc(OC)cc(N2C(=O)N(Cc3cccc(C)c3)c3ccccc3S2(=O)=O)c1` [Example 6, 2-(3,5-dimethoxyphenyl)-4-(3-methylbenzyl)-2H-1,2,4-benzothiadiazin-3(4H)-one 1,1-dioxide] the value was 468 nM; for `COc1ccc(N2C(=O)N(Cc3ccc(C)cc3)c3ccccc3S2(=O)=O)cc1OC` [Example 7, 2-(3,4-dimethoxyphenyl)-4-(4-methylbenzyl)-2H-1,2,4-benzothiadiazin-3(4H)-one 1,1-dioxide], 37.2 nM.
As for `COc1ccc(N2C(=O)N(Cc3ccc(F)cc3)c3ccccc3S2(=O)=O)cc1OC` [Example 8, 2-(3,4-dimethoxyphenyl)-4-(4-fluorobenzyl)-2H-1,2,4-benzothiadiazin-3(4H)-one 1,1-dioxide], the Ki was 56.2 nM.
For `CSc1cccc(N2C(=O)N(Cc3cccc(Br)c3)c3ccccc3S2(=O)=O)c1` [Example 9, 4-(3-bromobenzyl)-2-[3-(methylsulfanyl)phenyl]-2H-1,2,4-benzothiadiazin-3(4H)-one 1,1-dioxide] the value was 35.5 nM; for `COc1cccc(N2C(=O)N(Cc3ccc(OC)c(F)c3)c3ccccc3S2(=O)=O)c1` [Example 10, 4-(3-fluoro-4-methoxybenzyl)-2-(3-methoxyphenyl)-2H-1,2,4-benzothiadiazin-3(4H)-one 1,1-dioxide], 117 nM.
As for `CCc1cccc(N2C(=O)N(Cc3ccc(OC)c(F)c3)c3ccccc3S2(=O)=O)c1` [Example 11, 2-(3-ethylphenyl)-4-(3-fluoro-4-methoxybenzyl)-2H-1,2,4-benzothiadiazin-3(4H)-one 1,1-dioxide], the Ki was 47.9 nM.
Take `Cc1ccc(N2C(=O)N(Cc3cccc(F)c3)c3ccccc3S2(=O)=O)cc1Cl` [Example 12, 4-(3-fluorobenzyl)-2-(3-chloro-4-methylphenyl)-2H-1,2,4-benzothiadiazin-3(4H)-one 1,1-dioxide]: the Ki is 34.7 nM.
As for `COc1cc(OC)cc(N2C(=O)N(Cc3ccccc3F)c3ccccc3S2(=O)=O)c1` [Example 13, 2-(3,5-dimethoxyphenyl)-4-(2-fluorobenzyl)-2H-1,2,4-benzothiadiazin-3(4H)-one 1,1-dioxide], the Ki is 26.9 nM.
In the case of `COc1cccc(N2C(=O)N(Cc3ccccc3F)c3ccccc3S2(=O)=O)c1` [Example 14, 4-(2-fluorobenzyl)-2-(3-methoxyphenyl)-2H-1,2,4-benzothiadiazin-3(4H)-one 1,1-dioxide], the Ki was 200 nM.
For `COc1cc(OC)cc(N2C(=O)N(Cc3ccccc3C)c3ccccc3S2(=O)=O)c1` [Example 15, 2-(3,5-dimethoxyphenyl)-4-(2-methylbenzyl)-2H-1,2,4-benzothiadiazin-3(4H)-one 1,1-dioxide] the value was 29.5 nM; for `COc1cc(OC)cc(N2C(=O)N(Cc3ccccc3Cl)c3ccccc3S2(=O)=O)c1` [Example 16, 4-(2-chlorobenzyl)-2-(3,5-dimethoxyphenyl)-2H-1,2,4-benzothiadiazin-3(4H)-one 1,1-dioxide], 31.6 nM; for `COC(=O)c1ccc(OC)c(CN2C(=O)N(c3cc(OC)cc(OC)c3)S(=O)(=O)c3ccccc32)c1` [Example 17, methyl 3-{[2-(3,5-dimethoxyphenyl)-1,1-dioxido-3-oxo-2,3-dihydro-4H-1,2,4-benzothiadiazin-4-yl]methyl}-4-methoxybenzoate], 13.5 nM.
For `COc1ccc(N2C(=O)N(Cc3ccccc3C)c3ccccc3S2(=O)=O)cc1OC` [Example 18, 2-(3,4-dimethoxyphenyl)-4-(2-methylbenzyl)-2H-1,2,4-benzothiadiazin-3(4H)-one 1,1-dioxide] the value was 14.8 nM; for `COc1ccc(N2C(=O)N(Cc3ccccc3Cl)c3ccccc3S2(=O)=O)cc1OC` [Example 19, 4-(2-chlorobenzyl)-2-(3,4-dimethoxyphenyl)-2H-1,2,4-benzothiadiazin-3(4H)-one 1,1-dioxide], 18.6 nM; for `COc1ccc(N2C(=O)N(Cc3c(F)cccc3Cl)c3ccccc3S2(=O)=O)cc1OC` [Example 20, 4-(2-chloro-6-fluorobenzyl)-2-(3,4-dimethoxyphenyl)-2H-1,2,4-benzothiadiazin-3(4H)-one 1,1-dioxide], 0.741 nM.
Turning to `COc1ccc(N2C(=O)N(Cc3ccc(F)cc3Cl)c3ccccc3S2(=O)=O)cc1OC` [Example 21, 4-(2-chloro-4-fluorobenzyl)-2-(3,4-dimethoxyphenyl)-2H-1,2,4-benzothiadiazin-3(4H)-one 1,1-dioxide], the Ki is 23.4 nM.
Take `CSc1cccc(N2C(=O)N(Cc3ccccc3Cl)c3ccccc3S2(=O)=O)c1` [Example 22, 4-(2-chlorobenzyl)-2-[3-(methylsulfanyl)phenyl]-2H-1,2,4-benzothiadiazin-3(4H)-one 1,1-dioxide]: the Ki was 23.4 nM.
For `CSc1cccc(N2C(=O)N(Cc3ccccc3F)c3ccccc3S2(=O)=O)c1` [Example 23, 4-(2-fluorobenzyl)-2-[3-(methylsulfanyl)phenyl]-2H-1,2,4-benzothiadiazin-3(4H)-one 1,1-dioxide] the value was 20.9 nM; for `O=C1N(Cc2c(F)cccc2Cl)c2ccccc2S(=O)(=O)N1c1ccc(Cl)cc1` [Example 24, 4-(2-chloro-6-fluorobenzyl)-2-(4-chlorophenyl)-2H-1,2,4-benzothiadiazin-3(4H)-one 1,1-dioxide], 7.08 nM.
For `Cc1ccc(N2C(=O)N(Cc3c(F)cccc3Cl)c3ccccc3S2(=O)=O)cc1Cl` [Example 25, 4-(2-chloro-6-fluorobenzyl)-2-(3-chloro-4-methylphenyl)-2H-1,2,4-benzothiadiazin-3(4H)-one 1,1-dioxide] the value was 2.51 nM.
For `O=C1N(Cc2c(F)cccc2Cl)c2ccccc2S(=O)(=O)N1c1ccccc1` [Example 26, 4-(2-chloro-6-fluorobenzyl)-2-phenyl-2H-1,2,4-benzothiadiazin-3(4H)-one 1,1-dioxide], the Ki was 79.4 nM.
With `Cc1cc(C)cc(N2C(=O)N(Cc3c(F)cccc3Cl)c3ccccc3S2(=O)=O)c1` [Example 27, 4-(2-chloro-6-fluorobenzyl)-2-(3,5-dimethylphenyl)-2H-1,2,4-benzothiadiazin-3(4H)-one 1,1-dioxide], the Ki was 0.631 nM.
On to `Cc1ccc(N2C(=O)N(Cc3c(F)cccc3Cl)c3ccccc3S2(=O)=O)cc1` [Example 28, 4-(2-chloro-6-fluorobenzyl)-2-(4-methylphenyl)-2H-1,2,4-benzothiadiazin-3(4H)-one 1,1-dioxide], for which the Ki is 5.62 nM.
For `CCOc1ccc(N2C(=O)N(Cc3c(F)cccc3Cl)c3ccccc3S2(=O)=O)cc1` [Example 29, 4-(2-chloro-6-fluorobenzyl)-2-(4-ethoxyphenyl)-2H-1,2,4-benzothiadiazin-3(4H)-one 1,1-dioxide], the Ki was 31.6 nM.
For `CC(=O)c1ccc(N2C(=O)N(Cc3c(F)cccc3Cl)c3ccccc3S2(=O)=O)cc1` [Example 30, 2-(4-acetylphenyl)-4-(2-chloro-6-fluorobenzyl)-2H-1,2,4-benzothiadiazin-3(4H)-one 1,1-dioxide] the value was 20 nM; for `Cc1cccc(N2C(=O)N(Cc3c(F)cccc3Cl)c3ccccc3S2(=O)=O)c1` [Example 31, 4-(2-chloro-6-fluorobenzyl)-2-(3-methylphenyl)-2H-1,2,4-benzothiadiazin-3(4H)-one 1,1-dioxide], 10.5 nM.
